PubChem BioAssay (NCI)
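Where inhibition never reached the appropriate level, the endpoint shown equals the highest concentration tested. Otherwise, values were interpolated linearly from a five-concentration, 48-hour dose response in 96-well plates. GI50 = concentration required for 50% inhibition of growth. TGI: total growth inhibition.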

Assays:
Experiment in all cases: DTP human tumour cell line panel, 48 h
[1] = system: HOP-92 NSCLC
[2] = system: KM12 colon
[3] = system: SK-MEL-5 melanoma
[4] = system: SNB-19 CNS
[5] = system: SW-620 colon
[6] = system: RXF 393 renal
[7] = system: OVCAR-8 ovarian
[8] = system: MALME-3M melanoma
[9] = system: NCI-H23 lung
[10] = system: SK-OV-3 ovarian

Compound `Cn1c2ccccc2c2c3c(c4c5cc(Br)ccc5n(C)c4c21)C(=O)N(O)C3=O` has a GI50 [1] of 0.18 µM, a GI50 [2] of 0.426 µM and a TGI [2] of over 100 µM. It also gave a GI50 [3] of 0.129 µM, a TGI [3] of 0.403 µM and a GI50 [4] of 0.0536 µM. It also gave a TGI [4] of over 100 µM, a GI50 [5] of 0.127 µM and a TGI [5] of over 100 µM. It also gave a GI50 [6] of 0.217 µM, a TGI [6] of 0.703 µM and a GI50 [7] of 0.113 µM. For the same compound, the TGI [7] was over 100 µM, the GI50 [8] was 0.494 µM and the TGI [8] was over 100 µM.

`O=C(CCn1[nH]c(=O)c(Cl)c(Cl)c1=O)NO` showed a TGI [2] of over 100 µM, a TGI [9] of over 100 µM and a TGI [3] of over 100 µM. The TGI [4] was over 100 µM, the TGI [5] was over 100 µM and the TGI [6] was over 100 µM. It also gave a TGI [7] of over 100 µM, a TGI [8] of over 100 µM and a TGI [10] of over 100 µM.

`Cc1cc([N+](=O)[O-])ccc1Nc1cccc(Cl)c1C` gave a TGI [2] of 31 µM, a TGI [9] of 33.3 µM and a TGI [3] of 29.1 µM. It also gave a TGI [4] of 42.9 µM, a TGI [5] of 62.7 µM and a TGI [6] of 34.5 µM. It also gave a TGI [7] of 30.3 µM, a TGI [8] of 29.2 µM and a TGI [10] of 47.7 µM.

`C=C1C(=O)O[C@@H]2C[C@@H]1CC/C(C)=C/CC/C(C)=C/CC[C@@]2(C)O` was tested, and the GI50 [1] was 3.96 µM, the TGI [1] was 19.8 µM and the GI50 [2] was 3.31 µM. The TGI [2] was 13.2 µM, the GI50 [9] was 4.14 µM and the TGI [9] was 16.2 µM. The GI50 [3] was 16.2 µM, the TGI [3] was 36.4 µM and the GI50 [4] was 28.4 µM. For the same compound, the TGI [4] was 76.2 µM, the GI50 [5] was 25.3 µM and the TGI [5] was 52.5 µM. The GI50 [6] was 19.1 µM, the TGI [6] was 45.6 µM and the GI50 [7] was 21.7 µM. The TGI [7] was 85.4 µM, the GI50 [10] was 46.6 µM and the TGI [10] was over 100 µM.

`CC1=NNC(=O)C2CCC(=O)N12` (stereo not given) gave a TGI [2] of over 100 µM, a TGI [3] of over 100 µM and a TGI [4] of over 100 µM. The TGI [5] was over 100 µM, the TGI [6] was over 100 µM and the TGI [7] was over 100 µM. For the same compound, the TGI [8] was over 100 µM and the TGI [10] was over 100 µM.

`Cn1cc(CO)c2c1C(=O)C=C(N1CC1)C2=O` gave a GI50 [1] of 0.898 µM, a TGI [1] of 4 µM and a GI50 [2] of 0.0145 µM. It also gave a TGI [2] of 0.0855 µM, a GI50 [9] of under 0.01 µM and a TGI [9] of under 0.0215 µM. It also gave a GI50 [3] of under 0.01 µM, a TGI [3] of under 0.01 µM and a GI50 [4] of under 0.0197 µM. For the same compound, the TGI [4] was 0.862 µM, the GI50 [5] was under 0.01 µM and the TGI [5] was over 31.6 µM. It also gave a GI50 [6] of under 0.0305 µM, a TGI [6] of 0.914 µM and a GI50 [7] of under 0.01 µM. It also gave a TGI [7] of 3.58 µM, a GI50 [10] of 0.0413 µM and a TGI [10] of 1.31 µM.

`CCOC(=O)C1(C#N)C(c2ccccc2)CC(O)(c2ccc(OC)cc2)C(C(=O)c2ccc(OC)cc2)C1c1ccccc1` (stereo not given) gave a TGI [2] of over 100 µM, a TGI [9] of over 100 µM and a TGI [3] of over 100 µM. For the same compound, the TGI [4] was over 100 µM, the TGI [5] was over 100 µM and the TGI [6] was over 100 µM. It also gave a TGI [7] of over 100 µM, a TGI [8] of over 100 µM and a TGI [10] of over 100 µM.

Work on `CCN(CC)c1ccc2c(c1)OC(N)=C(C#N)C2c1cc(OC)c2c(c1)OCO2` (stereo not given) yielded a GI50 [1] of 0.107 µM, a TGI [1] of 3.58 µM and a GI50 [2] of 0.0325 µM. The TGI [2] was 0.603 µM, the GI50 [9] was 0.0359 µM and the TGI [9] was 14.5 µM. It also gave a GI50 [3] of 0.0287 µM, a TGI [3] of 0.597 µM and a GI50 [4] of 0.0418 µM. The TGI [4] was 51 µM, the GI50 [5] was 0.0354 µM and the TGI [5] was over 48.9 µM. It also gave a GI50 [7] of 0.0395 µM, a TGI [7] of 3.53 µM and a GI50 [8] of 0.445 µM. It also gave a TGI [8] of 5.59 µM, a GI50 [10] of 0.035 µM and a TGI [10] of 12.7 µM.

`O=[N+]([O-])c1ccc(C2=Nn3cnnc3SC2)o1` gave a TGI [1] of 49.4 µM, a TGI [2] of 47.6 µM and a TGI [3] of 31.5 µM. The TGI [4] was 79 µM, the TGI [5] was 25.3 µM and the TGI [6] was 32.9 µM. For the same compound, the TGI [7] was 53.9 µM.

With `Cc1cc(CC(O)c2ccc(Cl)c(Cl)c2)nc(=O)[nH]1` (stereo not given) the TGI [1] was 49.5 µM, the TGI [2] was over 100 µM and the TGI [9] was over 100 µM. For the same compound, the TGI [3] was over 100 µM, the TGI [4] was over 100 µM and the TGI [5] was over 100 µM. It also gave a TGI [7] of over 100 µM, a TGI [8] of over 100 µM and a TGI [10] of over 100 µM.

For `COC(=O)C(=Cc1cc(OC)ccc1OC)C(=O)OC`, the TGI [1] was 60 µM, the TGI [2] was 42.8 µM and the TGI [3] was 42.7 µM. It also gave a TGI [4] of over 100 µM, a TGI [5] of 55.6 µM and a TGI [6] of 31.3 µM. The TGI [7] was over 100 µM, the TGI [8] was 74.6 µM and the TGI [10] was 76.2 µM.

`Cc1ccc(C)c(C2=C(c3cn(C)c4ccccc34)C(=O)NC2=O)c1` was tested, and the GI50 [2] was 12.6 µM, the TGI [2] was over 25 µM and the GI50 [9] was over 25 µM. The TGI [9] was over 25 µM, the GI50 [3] was over 25 µM and the TGI [3] was over 25 µM. For the same compound, the GI50 [4] was over 25 µM, the TGI [4] was over 25 µM and the GI50 [5] was 13 µM. The TGI [5] was over 25 µM, the GI50 [6] was 5.93 µM and the TGI [6] was over 25 µM. For the same compound, the GI50 [7] was over 24.2 µM, the TGI [7] was over 25 µM and the GI50 [8] was over 25 µM. The TGI [8] was over 25 µM, the GI50 [10] was 15.1 µM and the TGI [10] was over 25 µM.

`COc1cccc(/C=C/c2cc(OC)c(OC)c(OC)c2)c1` was tested, and the TGI [1] was over 100 µM, the TGI [2] was over 100 µM and the TGI [9] was over 100 µM. It also gave a TGI [3] of over 100 µM, a TGI [4] of over 100 µM and a TGI [5] of over 100 µM. For the same compound, the TGI [7] was over 100 µM, the TGI [8] was over 100 µM and the TGI [10] was over 100 µM.

`CC(=O)Nc1ccc(C(=O)NN2C(=O)CSC2c2ccc([N+](=O)[O-])cc2)cc1` (stereo not given) gave a TGI [1] of over 100 µM, a TGI [2] of over 100 µM and a TGI [9] of over 100 µM. It also gave a TGI [3] of over 100 µM, a TGI [4] of over 100 µM and a TGI [5] of over 100 µM. It also gave a TGI [6] of over 100 µM, a TGI [7] of over 100 µM and a TGI [10] of over 100 µM.
